Among the test systems are SF-295; SNB-19; NCI-H522; A549; UACC-62; HCC 2998; CAKI-1; 786-0; M14; RPMI-8226; SNB-75; NCI-H23; SK-MEL-28; HL-60; HCT-116; Malme-3M.
Holding throughout (experiment): inhibition of tumour cell growth, NCI panel, 48 h

The record followed here is ChEMBL document CHEMBL1201862, “PubChem BioAssay data set” (2004).

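96-well plates; 48 h exposure; 5 concentrations. Endpoints by linear interpolation between flanking doses. Not reached: highest tested concentration assigned. Here, GI50 denotes the concentration required for 50% inhibition of growth.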 The source made the active and inactive calls. No stated cut-off is given here; in the data, active = GI50 up to about 1.1 µM and inactive = higher.

Consider `O=S(=O)(/C=C/c1ccc(F)cc1)Cc1ccc(CS(=O)(=O)/C=C/c2ccc(F)cc2)cc1`, for which the GI50 in the test on SF-295, with SNB-19, in the test with NCI-H522, in the test with A549, in the test on UACC-62 and in the test with HCC 2998 was > 100 µM (inactive) each time. The GI50 in the test with CAKI-1, in the test with 786-0, in the test on M14, in the test on RPMI-8226, in the test on SNB-75 and in the test on NCI-H23 was > 100 µM (inactive) throughout. Further, the GI50 in the test with SK-MEL-28, with HL-60, with HCT-116 and in the test on Malme-3M was > 100 µM (inactive) in each case.
As to `COc1ccccc1NC(=O)C1=C(C)NC(C)=C(C(=O)Nc2ccccc2OC)C1c1ccccc1OC`, the GI50 in the test on SF-295, with SNB-19, with NCI-H522, with A549, with UACC-62 and with HCC 2998 was > 100 µM (inactive) each time. The GI50 in the test on CAKI-1 is > 100 µM (inactive); in the test on 786-0 it was > 100 µM (inactive); with M14, > 100 µM (inactive); in the test on RPMI-8226, 75.9 µM (inactive); in the test on SNB-75 it was 19.3 µM (inactive); in the test on NCI-H23, > 100 µM (inactive). Also, the GI50 in the test on SK-MEL-28 is > 100 µM (inactive); with HL-60 it was 75.2 µM (inactive); in the test with HCT-116 it was 38.9 µM (inactive); in the test on Malme-3M, > 100 µM (inactive).
With `O=C(CC(=O)N1N=C(c2ccccc2)C(/N=N/c2ccc(Cl)cc2)C1=O)Nc1ccccc1Cl` (stereo not given), the GI50 with SNB-19 is 21.2 µM (inactive); with NCI-H522, 30.3 µM (inactive); in the test on A549, 13.2 µM (inactive); with UACC-62, 21.6 µM (inactive); in the test with HCC 2998, 68.7 µM (inactive); in the test with CAKI-1, 19.5 µM (inactive). Also, the GI50 in the test on 786-0 is 12.2 µM (inactive); with M14, 28.1 µM (inactive); in the test on RPMI-8226, 27.6 µM (inactive); in the test on SNB-75 it was 16.4 µM (inactive); in the test with NCI-H23, 29.4 µM (inactive); with SK-MEL-28, 20.6 µM (inactive). The GI50 in the test on HL-60 was 26.6 µM (inactive); in the test on HCT-116, 23.6 µM (inactive).
Consider `Cc1cc(C)[n+](CCOc2ccc(/C(=C(/Cl)c3ccccc3)c3ccccc3)cc2)c(C)c1.[O-][Cl+3]([O-])([O-])[O-]`, for which the GI50 in the test on SF-295 was 2.47 µM (inactive); in the test on SNB-19 it was 0.865 µM (active); with NCI-H522, 0.39 µM (active); with A549, 1.55 µM (inactive); in the test with UACC-62, 0.741 µM (active); in the test on HCC 2998, 0.701 µM (active). Besides, the GI50 in the test with CAKI-1 was 4.49 µM (inactive); with 786-0 it was 2.45 µM (inactive); in the test with M14 it was 2 µM (inactive); with RPMI-8226, 0.348 µM (active); in the test with SNB-75, 0.697 µM (active); in the test on NCI-H23 it was 0.869 µM (active). The GI50 was 1.32 µM (inactive) in the test with SK-MEL-28, 0.215 µM (active) with HL-60, 0.743 µM (active) in the test on HCT-116 and 1.4 µM (inactive) in the test on Malme-3M.
In the case of `CN1C=C(C(N)=O)C2CC(O)[C@@](NC(=O)CS(N)(=O)=O)(C(=O)O)C2C1` (stereo not given in full), the GI50 is 2.75 µM (inactive) in the test with SF-295; 2.79 µM (inactive) in the test on SNB-19; 11.7 µM (inactive) in the test on NCI-H522; 3.25 µM (inactive) with A549; 2.17 µM (inactive) with UACC-62; 18.5 µM (inactive) in the test with HCC 2998. The GI50 was 5.46 µM (inactive) in the test with CAKI-1; 3.61 µM (inactive) in the test on 786-0; 1.49 µM (inactive) with M14; 18 µM (inactive) in the test with RPMI-8226; 2.23 µM (inactive) with SNB-75; 1.86 µM (inactive) in the test on NCI-H23. Further, the GI50 is 2.43 µM (inactive) in the test on SK-MEL-28, < 0.01 µM (active) with HL-60, 3.32 µM (inactive) with HCT-116 and 4.57 µM (inactive) with Malme-3M.
`CCC1CCc2c(c(=O)oc3c2cc(OC)c2cccc(OC)c23)C1` (stereo not given): the GI50 in the test on SF-295 is 32.6 µM (inactive); with SNB-19, > 100 µM (inactive); in the test with NCI-H522, 36.6 µM (inactive); in the test with A549, 71 µM (inactive); in the test on UACC-62, 48.5 µM (inactive); in the test with HCC 2998 it was 77.1 µM (inactive). In addition, the GI50 with CAKI-1 was > 100 µM (inactive); in the test with 786-0, > 100 µM (inactive); in the test on M14 it was > 100 µM (inactive); with RPMI-8226 it was 49.5 µM (inactive); in the test on SNB-75 it was 55.8 µM (inactive); with NCI-H23, 57.1 µM (inactive). Also, the GI50 in the test with SK-MEL-28 is > 100 µM (inactive); in the test on HL-60, 17.5 µM (inactive); with HCT-116, 33.4 µM (inactive); with Malme-3M it was 56.9 µM (inactive).
As for `COc1ccc2nc3cc(Cl)ccc3c(Sc3ccc(NC(C)=O)cc3)c2c1`, the GI50 was > 25.9 µM (inactive) with SF-295; 2.79 µM (inactive) in the test with NCI-H522; > 53.2 µM (inactive) in the test on A549; 15.3 µM (inactive) with UACC-62; 2.74 µM (inactive) in the test with HCC 2998; > 27 µM (inactive) in the test on CAKI-1. Also, the GI50 with 786-0 was 8.15 µM (inactive); in the test with M14, 11.6 µM (inactive); with RPMI-8226, 26.3 µM (inactive); in the test on SNB-75, > 24 µM (inactive); with NCI-H23 it was 13.8 µM (inactive); in the test on SK-MEL-28 it was 12.8 µM (inactive). In addition, the results for the GI50 in the test with HL-60, in the test with HCT-116 and with Malme-3M were 19.4 µM (inactive), 17.9 µM (inactive) and > 35.2 µM (inactive), respectively.
As to `CN1C(=O)CNS1(=O)=O`, the GI50 with SF-295, with SNB-19, in the test with A549, with UACC-62, with HCC 2998 and with 786-0 was > 100 µM (inactive) each time. The GI50 in the test with M14 was > 100 µM (inactive); in the test on RPMI-8226, > 100 µM (inactive); in the test with SNB-75, 38.1 µM (inactive); in the test on NCI-H23, > 100 µM (inactive); with SK-MEL-28, > 100 µM (inactive); with HL-60, > 100 µM (inactive). Further, the GI50 with HCT-116 and in the test with Malme-3M was > 100 µM (inactive) in each case.
`O=C(O)c1ccc(NC(=O)C2C(=O)C(=O)N(c3ccc(C(=O)O)cc3)C2=O)cc1` (stereo not given): the GI50 in the test on SF-295, with SNB-19, in the test with NCI-H522, in the test on A549, with UACC-62 and in the test on HCC 2998 was > 100 µM (inactive) each time. The GI50 in the test with CAKI-1, in the test with 786-0, with RPMI-8226, in the test on SNB-75, with NCI-H23 and with SK-MEL-28 was > 100 µM (inactive) in each case. In addition, the GI50 with HL-60, with HCT-116 and in the test on Malme-3M was > 100 µM (inactive) throughout.
Regarding `CCCCCCCCC/C=C1\CCC(CN(C)C)C1=O` (stereo not given), the GI50 in the test with SF-295 is 3.22 µM (inactive); in the test on SNB-19 it was 5.87 µM (inactive); with NCI-H522, 1.95 µM (inactive); in the test on A549 it was 4.39 µM (inactive); in the test on UACC-62, 2.48 µM (inactive); with HCC 2998, 3.5 µM (inactive). Also, the GI50 with CAKI-1 was 2.25 µM (inactive); in the test on 786-0, 0.281 µM (active); with M14, 1.84 µM (inactive); in the test on RPMI-8226 it was 0.0619 µM (active); with SNB-75, 2.37 µM (inactive); with NCI-H23, 2.44 µM (inactive). In addition, the GI50 is 2.03 µM (inactive) in the test with SK-MEL-28, 1.94 µM (inactive) in the test with HL-60, 1.8 µM (inactive) in the test with HCT-116 and 3.03 µM (inactive) with Malme-3M.
Take `O=C(O)C(CS)NCc1c2ccccc2nc2ccccc12` (stereo not given): the GI50 is 43.2 µM (inactive) in the test on SF-295; 58.6 µM (inactive) with SNB-19; 25 µM (inactive) in the test with NCI-H522; 91.6 µM (inactive) with A549; 40.6 µM (inactive) in the test with HCC 2998; 34.4 µM (inactive) in the test with CAKI-1. For the same molecule, the GI50 was 55.2 µM (inactive) in the test with 786-0; 22 µM (inactive) with RPMI-8226; 65.8 µM (inactive) with SNB-75; 37.8 µM (inactive) in the test on NCI-H23; 72.6 µM (inactive) with SK-MEL-28; 22.3 µM (inactive) in the test on HL-60. The GI50 with HCT-116 was 16.7 µM (inactive); with Malme-3M it was 38.2 µM (inactive).
On to `O=C1c2ccccc2C(=O)c2[nH]c(Cc3ccccc3F)nc21`, for which the GI50 in the test on SF-295 was 59.2 µM (inactive); with SNB-19, 38.5 µM (inactive); with NCI-H522, 21.3 µM (inactive); in the test with A549, 52.7 µM (inactive); in the test on UACC-62 it was 46.1 µM (inactive); in the test on HCC 2998 it was > 100 µM (inactive). For the same molecule, the GI50 in the test on CAKI-1 was 86.7 µM (inactive); with 786-0, 38.5 µM (inactive); in the test with M14 it was 84.1 µM (inactive); with RPMI-8226, 57.4 µM (inactive); in the test on SNB-75, 50.7 µM (inactive); in the test with NCI-H23, 27.7 µM (inactive). Besides, the GI50 in the test on SK-MEL-28 was > 100 µM (inactive); with HL-60 it was 35.6 µM (inactive); in the test on HCT-116 it was 41.4 µM (inactive); in the test on Malme-3M it was 40.7 µM (inactive).
Consider `Cc1ccc(-c2nc3ccccc3c(=O)n2NC2OC(CO)C(O)C(O)C2O)cc1` (stereo not given), for which the GI50 with SF-295, in the test with SNB-19, in the test with NCI-H522, in the test with A549, with UACC-62 and with HCC 2998 was > 100 µM (inactive) throughout. Moreover, the GI50 in the test on CAKI-1 is 39.6 µM (inactive); in the test on 786-0 it was > 100 µM (inactive); in the test on M14, > 100 µM (inactive); in the test on RPMI-8226, > 100 µM (inactive); with SNB-75 it was > 100 µM (inactive); in the test on NCI-H23, > 100 µM (inactive). Also, the GI50 with SK-MEL-28 is > 100 µM (inactive); in the test on HL-60, > 100 µM (inactive); in the test with HCT-116 it was > 100 µM (inactive); with Malme-3M, 48.2 µM (inactive).
